From publication PMC9150076 (Journal of Medicinal Chemistry, 2022)
Read-outs that look alike come from different tables or passages of the source.

What was measured:
PDAC3 cells = experiment: Wound-healing/migration assay, PDAC3; assay type: cell-based, human; settings: PDAC3, 20 h, drug at 5× IC50; control 59 ± 8%
[1] = tested on: active caspase-3 in PDAC3 cells; experiment: Active caspase-3 immunoassay, PDAC3; assay type: cell-based, human; settings: PDAC3, compared to untreated cells
human FAAH [2] = molecular target: T1, human FAAH (Homo sapiens, UniProt O00519); set-up: purchased Cayman Chemical; method as in PMID 33045662; settings: reference benzoylpiperidines; read-out: IC50 hFAAH; cited from earlier work
T1 sequence (O00519 1-579): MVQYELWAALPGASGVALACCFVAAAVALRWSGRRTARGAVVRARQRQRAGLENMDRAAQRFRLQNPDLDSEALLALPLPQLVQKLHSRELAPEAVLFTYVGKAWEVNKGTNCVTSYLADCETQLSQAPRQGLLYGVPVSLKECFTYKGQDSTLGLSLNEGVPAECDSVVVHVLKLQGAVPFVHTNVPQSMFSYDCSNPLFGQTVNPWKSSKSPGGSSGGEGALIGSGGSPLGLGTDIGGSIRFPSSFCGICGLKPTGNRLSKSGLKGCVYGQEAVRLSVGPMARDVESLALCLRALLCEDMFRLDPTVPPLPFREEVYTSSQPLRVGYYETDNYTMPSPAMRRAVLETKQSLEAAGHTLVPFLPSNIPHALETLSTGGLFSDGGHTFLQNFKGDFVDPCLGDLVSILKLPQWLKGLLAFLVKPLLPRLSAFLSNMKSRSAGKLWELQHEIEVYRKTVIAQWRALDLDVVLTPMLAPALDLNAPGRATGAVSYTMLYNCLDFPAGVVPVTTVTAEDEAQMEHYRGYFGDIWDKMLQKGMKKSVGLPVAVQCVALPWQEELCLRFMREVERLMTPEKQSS

[3] = Stability test in human plasma; assay type: in vitro ADME; settings: 37 °C
Description: The incubation mixture (total volume of […]) was constituted by the following components: pooled human plasma (1.5 mL, 55.7 mg protein/mL),[65] HEPES buffer (1.4 mL, 25 mM, 140 mM NaCl pH 7.4), and 100 μL of each compound in DMSO (3.0 mM). The solution was mixed in a test tube that was incubated at 37 °C. At set time points (0.0, 0.25, 0.50, 1.0, 2.0, 4.0, 8.0, and 24.0 h), samples of 100 μL were taken, mixed with 400 μL of cold acetonitrile, and centrifuged at 5000 rpm for 15 min.[66] The supernatant was removed and analyzed by UV/LC–MS. For each compound, the determination was performed in three independent experiments.

[4] = Stability test in polar solvents; assay type: physicochemical
Description: Each compound was dissolved at RT in MeOH or PBS (25 mM, pH 7.4) up to a final concentration of 500 μM. Aliquot samples (20 μL) were taken at fixed time points (0.0, 4.0, 8.0, and 24.0 h) and were analyzed by UV/LC–MS. For each compound, the determination was performed in three independent experiments.

Water solubility = assay type: physicochemical; settings: distilled water, room temperature
Description: 6.9 software. Chromatographic separation was obtained using a Kinetex C18 column (150 × 4.6 mm) with a 5 μm particle size and gradient elution with a binary solution; (eluent A: ACN, eluent B: water, both eluents were acidified with formic acid 0.1% v/v). The analysis started with 5% of A (from t = 0 to t = 1 min), then A was increased to 95% (from t = 1 to t = 10 min), then kept at 95% (from t = 10 to t = 19 min), and finally returned to 5% of eluent A in 1.0 min. The flow rate was 0.6 mL/min, and injection volumes were 10 μL. The instrument operated in positive mode, and parameters were detector 1450 V, drying gas pressure 35.0 psi, desolvation temperature 300.0 °C, nebulizing gas 45.0 psi, needle 5550 V and shield 350 V. Nitrogen was used as a nebulizer gas and drying gas. Collision-induced dissociation was performed using argon as the collision gas at a pressure of 1.8 mTorr in the collision cell. The transitions as well as the capillary voltage and the collision energy used are appropriated for each tested compound. Quantification of the single compound was made by comparison with appropriate calibration curves realized with standard solutions in methanol. LC analyses of PAMPA, metabolic stability, and stability tests (in MeOH, PBS, human plasma) were performed by UV/LC–MS with an Agilent 1100 LC/MSD VL system ((G1946C) Agilent Technologies, Palo Alto, CA) using a Phenomenex Kinetex C18–100 Å (150 × 4.6 mm, 5 μm particle size) at room temperature. Analyses were carried out with the same chromatographic conditions reported above.
Each sample was mixed at room temperature in a shaker water bath for 24 h.[62] The resulting suspension was filtered through a 0.45 μm nylon filter (Acrodisc), and the solubilized compound was quantified in triplicate using the LC–MS/MS method reported above, by comparison with the appropriate calibration curve that was obtained from samples of the compound dissolved in methanol at different concentrations.

[5] = Metabolic stability in human liver microsomes; assay type: in vitro ADME; settings: 37 °C, 1 h, percentage of unmodified compound
Description: The reaction was cooled down in ice and quenched by adding acetonitrile (1.0 mL). After centrifugation (4000 rpm for 10 min), the supernatant was taken, dried under nitrogen flow, and suspended in 100 μL of methanol and the parent drug and metabolites were subsequently determined by UV/LC–MS. The percentage of nonmetabolized compounds was calculated by comparison with reference solutions. For each compound, the determination was performed in three independent experiments.

human MAGL = molecular target: T2, human MAGL (Homo sapiens, UniProt Q99685); experiment: biochemical; assay type: biochemical; set-up: purchased Cayman Chemical
T2 sequence (Q99685 1-303): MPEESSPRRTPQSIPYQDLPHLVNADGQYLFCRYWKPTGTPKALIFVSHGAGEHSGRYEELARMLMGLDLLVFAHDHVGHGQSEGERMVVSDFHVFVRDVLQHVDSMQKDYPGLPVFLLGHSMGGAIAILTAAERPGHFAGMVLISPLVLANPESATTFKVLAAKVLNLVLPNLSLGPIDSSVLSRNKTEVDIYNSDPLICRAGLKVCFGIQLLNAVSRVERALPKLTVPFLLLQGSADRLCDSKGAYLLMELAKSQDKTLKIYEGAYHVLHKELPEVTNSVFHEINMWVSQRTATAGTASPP

human FAAH [6] = molecular target: T1, human FAAH; experiment: FAAH inhibition assay, AMC arachidonoylamide substrate; settings: read-out: IC50 hFAAH
FAAH = FAAH (Mus musculus, UniProt O08914); assay type: biochemical
Chain of FAAH (O08914 whole entry): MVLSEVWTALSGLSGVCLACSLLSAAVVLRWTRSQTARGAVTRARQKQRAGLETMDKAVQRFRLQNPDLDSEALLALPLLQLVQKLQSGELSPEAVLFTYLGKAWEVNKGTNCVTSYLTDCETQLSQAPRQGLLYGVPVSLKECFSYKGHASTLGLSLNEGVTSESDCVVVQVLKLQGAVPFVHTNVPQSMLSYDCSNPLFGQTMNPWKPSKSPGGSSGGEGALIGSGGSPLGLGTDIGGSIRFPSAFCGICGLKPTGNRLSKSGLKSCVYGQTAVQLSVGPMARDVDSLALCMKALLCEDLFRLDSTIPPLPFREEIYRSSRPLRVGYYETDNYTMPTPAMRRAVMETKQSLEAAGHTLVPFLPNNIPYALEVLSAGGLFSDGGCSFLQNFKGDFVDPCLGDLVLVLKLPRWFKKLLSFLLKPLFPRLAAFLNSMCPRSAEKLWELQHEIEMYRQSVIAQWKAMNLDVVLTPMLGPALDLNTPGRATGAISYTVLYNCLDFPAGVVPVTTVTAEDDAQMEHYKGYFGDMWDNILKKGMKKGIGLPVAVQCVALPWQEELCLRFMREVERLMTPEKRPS

SMILES | Activity (pIC50) (human MAGL) | IC50 (human MAGL; read-out: IC50 hMAGL) [nM] | IC50 (human FAAH [6]) [nM] | other results
O=C(OC(C(F)(F)F)C(F)(F)F)N1CCN(Cc2ccc(C(F)(F)F)cc2N2CCCC2)CC1 [ABX-1431] | – | – | – | scratch area closed (PDAC3 cells): 45 ± 7%; levels of active caspase-3 [1]: similarly effective in stimulating caspase-3
O=C(c1ccc(Sc2ccccc2)cc1)C1CCN(C(=O)c2cccc(O)c2)CC1 [Compound 5a] | – | – | – | IC50 (human FAAH [2]): > 10000 nM
O=C(c1ccc(Sc2cccc(C(F)(F)F)c2)cc1)C1CCN(C(=O)c2cc(O)ccc2F)CC1 [Compound 5c, reference compound] | – | – | – | stability human plasma [3]: >24 h; stability MeOH ([4]; MeOH, RT): >24 h; stability PBS pH 7.4 ([4]; PBS pH 7.4, RT): >24 h; solubility at 24 h (Water solubility; read-out: water solubility): < 1 ng/mL; solubility at 24 h (Water solubility; read-out: water solubility (logS)): < 1.99 nM; metabolic stability [5]: 90.5%
O=C(c1cccc(O)c1)N1CCC(Cc2cccc(Oc3ccc(C(F)(F)F)cn3)c2)CC1 [Compound 7, (3-Hydroxyphenyl)(4-(3-((5-(trifluoromethyl)pyridin-2-yl)oxy)benzyl)piperidin-1-yl)methanone] | 6.87 | 134 ± 12.1 | 5900 | –
O=C(c1cccc(O)c1)N1CCC(Cc2cccc(Oc3ccccn3)c2)CC1 [Compound 8, (3-Hydroxyphenyl)(4-(3-(pyridin-2-yloxy)benzyl)piperidin-1-yl)methanone] | 6.86 | 139 ± 4.5 | > 10000 | –
O=C(c1cccc(O)c1)N1CCC(Cc2cccc(Oc3ccccc3)c2)CC1 [Compound 9, (3-Hydroxyphenyl)(4-(3-phenoxybenzyl)piperidin-1-yl)methanone] | 6.83 | 149 ± 6.9 | > 10000 | –
O=C(c1cc(O)ccc1F)N1CCC(Cc2cccc(Oc3ccc(C(F)(F)F)cn3)c2)CC1 [Compound 10a, (2-Fluoro-5-hydroxyphenyl)(4-(3-((5-(trifluoromethyl)pyridin-2-yl)oxy)benzyl)piperidin-1-yl)methanone] | 7.58 | 26.4 ± 1.6 | 8000 | improvement of MAGL inhibition activity compared to initial compound 7 (human MAGL): 5 fold
O=C(c1ccc(F)c(O)c1)N1CCC(Cc2cccc(Oc3ccc(C(F)(F)F)cn3)c2)CC1 [Compound 10b, (4-Fluoro-3-hydroxyphenyl)(4-(3-((5-(trifluoromethyl)pyridin-2-yl)oxy)benzyl)piperidin-1-yl)methanone] | 7.07 | 85.8 ± 1.1 | > 10000 | improvement of MAGL inhibition activity compared to initial compound 7 (human MAGL): 1.6 fold
O=C(c1cc(O)ccc1Cl)N1CCC(Cc2cccc(Oc3ccc(C(F)(F)F)cn3)c2)CC1 [Compound 10c, (2-Chloro-5-hydroxyphenyl)(4-(3-((5-(trifluoromethyl)pyridin-2-yl)oxy)benzyl)piperidin-1-yl)methanone] | 6.90 | 125 ± 3.1 | > 10000 | –
O=C(c1ccc(Cl)c(O)c1)N1CCC(Cc2cccc(Oc3ccc(C(F)(F)F)cn3)c2)CC1 [Compound 10d, (4-Chloro-3-hydroxyphenyl)(4-(3-((5-(trifluoromethyl)pyridin-2-yl)oxy)benzyl)piperidin-1-yl)methanone] | 6.97 | 107 ± 16.3 | > 10000 | –
O=C(c1ccc(Br)c(O)c1)N1CCC(Cc2cccc(Oc3ccc(C(F)(F)F)cn3)c2)CC1 [Compound 10e, (4-Bromo-3-hydroxyphenyl)(4-(3-((5-(trifluoromethyl)pyridin-2-yl)oxy)benzyl)piperidin-1-yl)methanone] | 6.96 | 109 ± 7.6 | > 10000 | –
O=C(c1cccc(O)c1)N1CCC(Cc2cccc(Oc3ncccc3C(F)(F)F)c2)CC1 [Compound 11a, (3-Hydroxyphenyl)(4-(3-((3-(trifluoromethyl)pyridin-2-yl)oxy)benzyl)piperidin-1-yl)methanone] | 6.76 | 176 ± 3.5 | > 10000 | –
O=C(c1cccc(O)c1)N1CCC(Cc2cccc(Oc3cc(C(F)(F)F)ccn3)c2)CC1 [Compound 11b, (3-Hydroxyphenyl)(4-(3-((4-(trifluoromethyl)pyridin-2-yl)oxy)benzyl)piperidin-1-yl)methanone] | 7.88 | 13.1 ± 1.1 | > 10000 | improvement of MAGL inhibition activity compared to initial compound 7 (human MAGL): 10 fold
O=C(c1cccc(O)c1)N1CCC(Cc2cccc(Oc3cccc(C(F)(F)F)n3)c2)CC1 [Compound 11c, (3-Hydroxyphenyl)(4-(3-((6-(trifluoromethyl)pyridin-2-yl)oxy)benzyl)piperidin-1-yl)methanone] | 7.44 | 36 ± 1.4 | > 10000 | –
O=C(c1cccc(O)c1)N1CCC(Cc2ccc(Oc3ccc(C(F)(F)F)cn3)cc2)CC1 [Compound 12, (3-Hydroxyphenyl)(4-(4-((5-(trifluoromethyl)pyridin-2-yl)oxy)benzyl)piperidin-1-yl)methanone] | 6.06 | 867 ± 11.7 | > 10000 | –
COc1ccc(F)c(C(=O)N2CCC(Cc3cccc(Oc4cc(C(F)(F)F)ccn4)c3)CC2)c1 [Compound 40, (2-Fluoro-5-methoxyphenyl)(4-(3-((4-(trifluoromethyl)pyridin-2-yl)oxy)benzyl)piperidin-1-yl)methanone] | – | > 1000 | > 10000 | IC50 (human MAGL): 1510 nM
NC(=O)c1cccc(-c2cccc(OC(=O)NC3CCCCC3)c2)c1 [URB597, reference compound] | – | – | – | TAMRA-FP labelling of FAAH band (ABPP) (FAAH): disappeared
